Results reported in patent US20260325575A1, “THE USE OF BORATE DERIVATIVES IN THE TREATMENT OF NEURODEGENERATIVE DISEASES” (YEDITEPE UNIVERSITESI, priority 2022, published 2026).

Tests used:
[1] = test system: SOD1 G93A transgenic mice; experiment: Rotarod test (motor performance) in SOD1 G93A transgenic mice; assay type: in vivo, mouse (C57BL/6 SOD1 G93A; conditions: 200 mg/kg by gavage every other day for 3 weeks; vs transgenic control (water); 14 rpm, max 180 s; n=8
Method: In the in vivo studies conducted, the SOD1 G93A transgenic mice model, which is one of the most preferred animal models for modeling ALS disease, was used. In the study (n=8); SPT and NaB were administered to the animals every other day by gavage. As a result of the comparison of the motor functions of these transgenic animals that received SPT and NaB throughout the experiment with the motor functions of the transgenic control (water) group, it was observed that SPT increased the performance of the rotarod test by 88.4% in the SOD1 G93A model compared to the control group (P<0.01). […] In the group that received water, it was observed that the findings aggravated over time and the rotarod performance decreased.
Example 1 Information about the Experimental Animals Used
Example 2 Experimental Groups
Example 3 Substance Administration
SPT or NaB derivatives at 200 mg/kg per mouse were vortexed at high speed and dissolved in the daily drinking water of the mice. […]
The mice were acclimatized with the rotarod test apparatus for one day before their motor function was tested and their performance was recorded at the end of the second day. Their motor performances were measured three times for a maximum of 180 seconds at a constant speed of 14 rpm, and their longest residence time on the apparatus was recorded. […]

[2] = test system: SOD1 G93A transgenic mice; experiment: Neuroscoring, phenotypic characteristics of NS1 phase; assay type: in vivo, mouse (C57BL/6 SOD1 G93A
Method: SPT or NaB derivatives at 200 mg/kg per mouse were vortexed at high speed and dissolved in the daily drinking water of the mice. Borate Solutions prepared thus in drinking water were administered to mice by gavage every other day for 3 weeks. The control group received only the same amount of drinking water by gavage.
In order to observe during the experiment the stages when early and late symptoms of the disease occur, wild-type and transgenic animals were subjected to neuroscoring as described in the study by Hatzipetros et al. In this way, it was aimed to observe whether the administration to the animals caused any difference in the onset, course and severity of ALS symptoms. For this, the table of the disease course is graded with a scoring System as follows: • 1. Neuro Score 0 (NS 0, Pre-symptomatic): When suspended by the tail, the mouse can fully extend its hindlimbs away from the lateral midline to the side in a normal manner and stay in this position for at least two seconds or longer. When the mouse is allowed to walk, normal gait is observed. • 2. NS 1 (First symptoms): When the mouse is suspended by the tail, its hindlimbs cannot fully extend away from the lateral midline, they partially collapse backwards or the hindlimbs are observed to tremble (tremor). Towards the end of the phase, gait disturbances and slow gait (ataxia) begin. The first symptoms usually appear as of day 90. • 3. NS 2 (Partial paralysis, paresis): When the mouse is suspended by the tail, its hindlimbs are partially or completely collapsed, or cannot extend much, there is still joint movement. When the mouse is allowed to walk, it can use its hindlimbs for forward motion, however it is observed that its toes curl backwards at least twice during a 90 cm walk or it can move by dragging its feet. When the mouse is placed on its left or right side, it is able to right itself within 10 seconds. • 4. NS 3 (Paralysis): When the mouse is suspended by the tail, it is observed that there is rigid paralysis in its hindlimbs or minimal joint movement. When the mouse is allowed to walk, it is observed that there is forward motion however it cannot use its hindlimbs. When the mouse is placed on its left or right side, it is observed that it is able to right itself within 10 seconds. • 5. NS 4 (Humane end-point): When the mouse is suspended by the tail, it is observed that there is rigid paralysis in its hindlimbs. When the mouse is allowed to walk, no motion is observed, when the mouse is placed on its left or right side it is observed that it is not able to right itself within 10 seconds, i.e., absence of righting reflex.
According to this scoring system, if we divide the symptoms observed in animals into phases according to the order of occurrence, 50-80 days after birth can be considered pre-symptomatic. Since as of day 90 the first symptoms start to appear, we can consider this date as the beginning of the early symptomatic phase and also the beginning of neuroscore 1. Although it can vary, this period can last 20-38 days and also covers the neuroscore 2 phase. As of day 120 on average, the process is called late symptomatic. Although it may last a little longer in females, this period lasts 5-10 days on average and neuroscore 3 and 4 phases are also observed during this late symptomatic period

[3] = test system: gene expression in brain and spinal cord tissues of transgenic mice; experiment: Microarray gene expression and pathway analysis (PANTHER GO) in brain and spinal cord; assay type: in vivo, mouse (C57BL/6 SOD1 G93A; conditions: transgenic animals, n=3
Method: FIG. 2. is a representation of the gene expressions of the other groups compared to the transgenic control group in the form of a heat map, as a result of the microarray analysis performed on the spinal cord materials of the transgenic and wild type experimental groups (n=3 per group) that received NaB, SPT and water only. (Statistical differences between groups were compared using Volcano plot analysis (two-way ANOVA; P values<0.05) and fold change ±2 and more were considered statistically significant).
FIG. 3. is a representation of some of the pathways in which SPT and NaB derivatives are found to be effective as a result of the pathway analysis (PANTHER Gene Ontology (GO) Classification and Pathway System) and of the number of genes located in these pathways (Total number of genes: 2677, total number of hits: 443).
In addition to measurements of motor function, in order to investigate whether derivatives induce any gene-based changes in the Central nervous system, brain and spinal cord materials were collected from wild type and transgenic control (water), NaB and SPT group animals with n=3 and RNA was isolated from these materials and microarray analysis was performed. […]

[4] = Cytotoxicity analysis (MTS); assay type: cell-based, human; conditions: human, differentiated sh-sy5y cells, neuronal cells, read-out: non-toxic concentration
Method: (§1) SHSY5Y cells stocked in cryo tubes at −80° C. or liquid nitrogen were kept in a water bath at 37° C. until completely solved. The solved cells were transferred to 15 ml Falcon tubes containing 5 ml cell medium and centrifuged at 300×g for 5 minutes. After centrifugation, the medium on the cells was removed and the cells were solved with 1 ml of fresh medium using a pipette. Then, the cells were transferred to cell flask containing 12 ml DMEM/F12 medium and incubated at 37° C. for 24±2 hours in an incubator containing 5% CO2.
(§2) The next day, the medium on the adherent cells was changed and incubation was continued until the cells formed 85%-90% monolayer […]. The medium of the monolayered cells was removed and the cells were washed with 5 ml PBS. […]
(§3) After the incubation period was completed, the medium on the cells was removed and the cells were washed again with 1 ml PBS. […] At the end of the tenth day, neuronal cells were ready.
(§4) After the incubation period was completed (24 hours), the medium on the cells was removed and replaced with 10% MTS solution prepared in the cell medium. […] After incubation, absorbance measurements were made using an ELISA plate reader at 490 nm. From the absorbance values obtained, cell viability was calculated according to the formula ((Mean Cell Abs./Mid. Negative Con. Abs.)*100). […]

[5] = test system: Amyloid beta plaques in SHSY5Y cells differentiated into cholinergic neurons; experiment: Amyloid beta plaques in Alzheimer's model, immunocytochemistry (fluorescence); assay type: cell-based, human
Method: SH-SY5Y cells were seeded in 6-well plates with 250×10^5 cells in each well and incubated with medium containing DMEM/F12, 10% FBS, 1% PSA at 37° C. in 5% CO2 for 24 hours. Then, the medium on the cells was removed and each well was washed with 1 ml PBS. Then, 2 ml of differentiation medium (1% FBS, 10 μM/ml RA) was added to each cell well and cells were incubated for 72 hours.
After the incubation period was completed, the medium on the cells was removed and the cells were washed again with 1 ml PBS. Afterwards, 2 ml of differentiation medium (1% FBS, 10 μM/ml RA, 10 μg/ml BDNF) was added to the cells and incubated for 72 hours. The same procedure was repeated on the seventh day. At the end of the tenth day, neuronal cells were ready.
Obtaining Alzheimer's Model and Evaluation of Active Substances
Immunocytochemistry Analysis
The old media on the incubated cells were removed and the cells were washed three times with 1 ml PBS.
Firstly, cells were fixed with 1 ml of 2% paraformaldehyde for 30 min at room temperature and then washed three times with PBS. […]
After incubation, the cells were washed three times with PBS. […] Finally, the cells were washed three times with PBS and measurements were taken with a fluorescence microscope (Zeiss).
The data obtained from the immunocytochemistry study were analysed using Image J (National Institutes of Health) and MS Excel.

ALS patients = conditions: cited from earlier work
[6] = test system: SHSY5Y cells differentiated into neuron cells; experiment: Cytotoxicity analysis (MTS); assay type: cell-based, human; conditions: 24 hours, neuronal cells
Method: as §1, §2, §3, §4

[7] = day 90, 200 mg/kg by gavage every other day, tg mice
[8] = day 110, 200 mg/kg by gavage every other day, tg mice

**Q.** Which “increase in rotarod performance compared to the control group” value [1] does the source give for `O.O.O.O.O.O=BO[B-](OB=O)(OB=O)OB=O.[Na+]` [NaB, sodium; tetrakis(oxoboranyloxy)boranuide; pentahydrate] here?
**A.** 62.45%

**Q.** What about the “classical symptoms of stage 1 (NS1) at the end of the experiment (hindlimb retraction, tremor and ataxia)” value ([2]; animals still in NS1 at end of experiment, vs control group) of the same molecule?
**A.** considerably weaker than those in the control group

**Q.** And the “s3 (ataxia), day 80 (t = 0)” value ([2]; day 80, before administration, tg mice)?
**A.** very mild

**Q.** And the “s1 (hindlimb retraction), day 90 (onset of the disease-NS1)” value [2, 7]?
**A.** mild

**Q.** And the “s2 (tremor), day 90 (onset of the disease-NS1)” value [2, 7]?
**A.** mild

**Q.** What about the “s3 (ataxia), day 90 (onset of the disease-NS1)” value [2, 7] of the same molecule?
**A.** mild

**Q.** And the “s1 (hindlimb retraction), day 110 (experiment endpoint)” value [2, 8]?
**A.** moderate

**Q.** And the “s2 (tremor), day 110 (experiment endpoint)” value [2, 8]?
**A.** moderate

**Q.** And the “s3 (ataxia), day 110 (experiment endpoint)” value [2, 8]?
**A.** moderate

**Q.** And the “gene expression compared to transgenic control / wild type” value [3]?
**A.** reversed the gene expression at a statistically significant rate, approximating it to the gene expression level in wild type animals

**Q.** And the MNTC at 24 h [4]?
**A.** 5 µg/mL

**Q.** And the “cells with Amyloid beta plaques” value ([5]; 24 hours, substance alone (ONaB or OAβ group))?
**A.** 0%

**Q.** And the inhibition at 5 µg/mL ([5]; Homo sapiens, SH-SY5Y, 24 h, read-out: plaques dissolved in Aβ+NaB group compared to the OAβ group)?
**A.** 92.4%

**Q.** For `Nc1nc2ccc(OC(F)(F)F)cc2s1` [Riluzole], which “extension of patient's life span” value (ALS patients) is on record?
**A.** approximately a few months

**Q.** With “Amyloid Beta: Amyloid Beta (Aβ), applied to differentiated SHSY5Y cells to create an Alzheimer's model [reference compound]” as the molecule, how does the non-toxic concentration [6] read?
**A.** 4 µg/mL
